Measurements as given in BindingDB's records for doi:10.1073/pnas.83.13.4918 (Merck Sharp & Dohme Research Laboratories, 1986).
Where a SMILES comes first, the peptide text is derived from it. [ ]: non-standard residue; d: D form. The star is where a group is joined. sY = N[C@@H](Cc1ccc(OS(=O)(=O)O)cc1)C(=O)O; Cbz = O=C(OCc1ccccc1)*

Key:
Cholecystokinin = biological target: T1, Cholecystokinin (Rattus norvegicus, UniProt P01355)
T1 sequence (P01355 whole entry): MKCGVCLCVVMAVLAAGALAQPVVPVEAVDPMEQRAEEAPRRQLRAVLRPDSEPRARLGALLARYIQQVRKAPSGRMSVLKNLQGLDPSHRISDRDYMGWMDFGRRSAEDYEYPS

[1] = biological target: GABA(A) receptor-associated protein (Sus scrofa, UniProt D7RA28)
[2] = biological target: Gamma-aminobutyric acid receptor subunit alpha-1 (Rattus norvegicus, UniProt P62813)
Chain of Gamma-aminobutyric acid receptor subunit alpha-1 (P62813 whole entry): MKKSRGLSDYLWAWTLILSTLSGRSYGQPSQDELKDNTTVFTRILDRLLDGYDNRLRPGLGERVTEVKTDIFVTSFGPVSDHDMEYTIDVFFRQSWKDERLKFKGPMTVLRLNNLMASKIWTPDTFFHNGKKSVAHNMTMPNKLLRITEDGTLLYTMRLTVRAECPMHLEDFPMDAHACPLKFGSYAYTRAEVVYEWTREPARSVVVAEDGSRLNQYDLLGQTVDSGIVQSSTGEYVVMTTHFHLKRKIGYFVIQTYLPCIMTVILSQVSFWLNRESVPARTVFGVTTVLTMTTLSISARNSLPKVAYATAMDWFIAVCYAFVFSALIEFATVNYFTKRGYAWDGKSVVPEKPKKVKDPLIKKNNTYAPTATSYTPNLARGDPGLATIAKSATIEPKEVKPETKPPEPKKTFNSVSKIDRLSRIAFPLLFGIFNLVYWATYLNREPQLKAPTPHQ

Chain of GABA(A) receptor-associated protein (D7RA28 whole entry): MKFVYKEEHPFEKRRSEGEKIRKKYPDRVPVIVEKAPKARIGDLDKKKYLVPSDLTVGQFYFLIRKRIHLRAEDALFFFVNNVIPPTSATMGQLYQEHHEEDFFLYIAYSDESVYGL

Structure (SMILES)	Ki (Cholecystokinin) [nM]	Ki [1] [nM]	Ki [2] [nM]
O=C(NC(Cc1c[nH]c2ccccc12)C(=O)O)c1ccc(Cl)cc1 (centres undefined)	> 10000	–	–
O=C(O)CN1C(=O)[C@@H](Cc2c[nH]c3ccccc23)N=C(c2ccccc2F)c2ccccc21 [CCK antagonist synthetic 13]	300	> 10000	–
CSCC[C@H](NC(=O)[C@H](Cc1ccc(OS(=O)(=O)O)cc1)NC(=O)OCc1ccccc1)C(=O)NCC(=O)N[C@@H](Cc1c[nH]c2ccccc12)C(=O)N[C@@H](CCSC)C(=O)N[C@@H](CC(=O)O)C(N)=O [Benzyloxycarbonyl CCK(27-32)NH2] (Cbz-[sY]MGWMD-NH2)	3500	–	–
CN1C(=O)[C@@H](Cc2c[nH]c3ccccc23)N=C(c2ccccc2F)c2ccccc21 [CCK antagonist synthetic 11]	270	> 10000	–
Cc1nnc2n1-c1ccccc1C(c1ccccc1F)=NC2Cc1c[nH]c2ccccc12 (centres undefined)	300	800	–
CN1C(=O)[C@@H](Cc2c[nH]c3ccccc23)N=C(c2ccccc2)c2cc(Cl)ccc21 [CCK antagonist synthetic 7]	1400	–	–
O=C1Nc2ccccc2C(c2ccccc2F)=N[C@@H]1Cc1c[nH]c2ccccc12 [CCK antagonist synthetic 9]	500	> 10000	–
CN1C(=O)[C@H](NC(=O)c2cc3ccccc3[nH]2)N=C(c2ccccc2)c2ccccc21	–	> 10000	–
O=C1Nc2ccc(Cl)cc2C(c2ccccc2)=N[C@H]1Cc1c[nH]c2ccccc12 [CCK antagonist synthetic 6]	> 10000	–	5600
CC(=O)NC1N=C(c2ccccc2F)c2ccccc2NC1=O (centres undefined) [CCK antagonist synthetic 16]	> 10000	–	–
O=C(O)CN1C(=O)C(NC(=O)c2cc3ccccc3[nH]2)N=C(c2ccccc2)c2ccccc21 (centres undefined) [CCK antagonist synthetic 20]	1.4	> 10000	–
O=C(NC1N=C(c2ccccc2F)c2ccccc2NC1=O)c1cc2ccccc2[nH]1 (centres undefined)	2.1	3000	–
CN1C(=O)[C@@H](NC(=O)c2cc3ccccc3[nH]2)N=C(c2ccccc2)c2ccccc21 [1H-Indole-2-carboxylic acid (1-methyl-2-oxo-5-phenyl-2,3-dihydro-1H-benzo[e][1,4]diazepin-3-yl)-amide: 0.1C4H10O. 0.15CH2Cl2]	–	> 10000	–
Cc1ccc2c(C(=O)NC3N=C(c4ccccc4F)c4ccccc4NC3=O)c[nH]c2c1 (centres undefined) [CCK antagonist synthetic 15]	1100	–	–
CN1C(=O)C(NC(=O)c2cc3ccccc3[nH]2)N=C(c2ccccc2)c2cc(F)ccc21 (centres undefined) [CCK antagonist synthetic 22]	1.4	7800	–
O=C(NC1N=C(c2ccccc2)c2ccccc2NC1=O)c1cc2ccccc2[nH]1 (centres undefined)	4.7	–	> 10000
O=C1Nc2ccccc2C(c2ccccc2)=N[C@@H]1Cc1c[nH]c2ccccc12 [CCK antagonist synthetic 8]	1200	–	> 10000
O=C1Nc2ccc(Cl)cc2C(c2ccccc2)=N[C@@H]1Cc1c[nH]c2ccccc12	3400	–	> 10000
